# In patent publication US11291659B2, “P38 kinase inhibitors reduce DUX4 and downstream gene expression for the treatment of FSHD” (Fulcrum Therapeutics, Inc., priority 2017, dated 2022):
# How the values were obtained:
# [1] = test system: MBD3L2 mRNA (DUX4 downstream gene); test: MBD3L2 mRNA expression by qPCR in FSHD myotubes; format: cell-based, Human; settings: for IC50: Homo sapiens, Myotube, read-out: IC50, reduction of MBD3L2 mRNA expression, FSHD myotubes, realtime PCR
# Protocol: Cell Plating: Performed three days prior to treatment, 10000 cells were plated per well on gelatinized 96-well plates, or 100000 cells on gelatinized 6-well plates.
# (§1) For ASO or compound treatments cells were plate into 100 μL of Promocell growth medium containing ASO or compounds at the described concentrations.
# (§2) On day 0, change to differentiation media. Remove plates from the incubator and aspirate the growth medium, Wash once with PBS, 100 μL for 96-wells and 1 mL for a 6-well plate, Add 100 μL or 2 mL of differentiation medium per well, 96- or 6-well respectively. Add antisense oligonucleotides or drug at the desire concentration and put back in the incubator. Fusion should start within day 1-2. Incubate for 3-4 days.
# (§3) Cells were removed from the incubator and media aspirated. Quickly lysed following one of the following protocols: For lysis in 96-well plates direct lysis and one-step RT-Preamp qPCR protocol described below. For each 96-well prepare a mix containing: 19.5 μL Roche Realtime Ready lysis buffer, 0.25 μL RNAse inhibitor, 0.25 μL DNAseI (from Thermo not the included one in the kit). 20 μL of the mix was added to each well, mix 5 times and incubated 5 minutes at RT or alternatively shaken vigorously for 15 minutes. Lysis was observed under the microscope. Samples were frozen −80° C. at least for 15 minutes,
# (§4) For qPCR, dilute 1:10 and use 2 μL for a 10 μL 1-step RT-qPCR reaction. For detection of GAPDH, RPLP0, TBP, MYOG, FRG1, MYH3, ACTN2, etc.). Per 10 μL reaction: RNA (1:10 dilution lysate) 2 μL, Fast Advanced Taqman Master Mix (2×) 5 μL, RT enzyme mix (40×) 0.25 μL, Taqman probe set (20×) 0.5 μL, H2O 2.25 μL. The following reaction protocol was run on the QuantStudio 7: 48° C. for 15 min, 50° C. for 2 min, 95° C. for 30 sec, 40×, 95° C. for 5 sec, 60° C. for 30 sec, then plates were read as specified by the manufacturer (Thermo). For 1-step RT-Preamplification used for detection of DUX4 downstream genes, i.e. MBD3L2, ZSCAN4, LEUTX, TRIM43, KHDC1L. POL2RA-VIC was used as Endogenous control). Per 10 μL reaction: RNA (1:10 dilution lysate) 2.25 μL, Taqman Pre-Amp Master Mix (2×) 5 μL, RT enzyme mix (40×) 0.25 μL, Taqman probe set (0.2×)*2.5 μL, * Pooling the TaqMan Assays: equal volumes of each 20× TaqMan® Gene Expression Assay, up to 100 assays were combined. For example, to pool 50 TaqMan assays, 10 μL of each assay were combined in a microcentrifuge tube. The pooled TaqMan assays were diluted using 1×TE buffer so that each assay is at a final concentration of 0.2×. For the above example, add 500 μL of 1×TE buffer to the pooled TaqMan assays for a total final volume of 1 mL. The QuantStudio7 protocol was used 48° C. 15 min, 95° C. 10 min, 10 cycles: 95° C. 15 sec, 60° C. 4 min, 4° C. infinite. Samples were then diluted to 50 μL and continue with the qPCR step. Per 10 μL reaction: Preamp dilution 2 μL, Fast Advanced Taqman Master Mix (2×) 5 μL, Taqman probe set (20×) 0.5 μL, H2O 2.5 μL. When multiplexing the volume was adjusted to 10 μL total). The following program was run on the QuantStudio7: 50° C. for 2 min, 95° C. for 30 sec, 40×, 95° C. for 5 sec, 60° C. for 30 sec, plates were read as per the manufacturers specifications (Thermo).
# (§5) After treatment, the control and treated cells were processed for realtime PCR quantification of MBD3L2 mRNA (DUX4 downstream gene) and myogenin (MYOG) mRNA (control) expression.
# FSHD myotubes = test: Myotube formation / fusion, MHC and DAPI staining; format: cell-based, Human; settings: immortalized FSHD myotubes; 1, 0.33, 0.11, 0.037 μM; 4 days
# Protocol: as §2
# Briefly, cells were fixed in 4% paraformaldehyde and […] for 10 min at room temperature. Cells were permeabilized with PBST (1×PBS solution with 0.1% Triton X-100) before blocking with 10% Normal Donkey Serum or 3% BSA (NDS) in PBST. […] DUX4 was detected by immunocytochemistry using the E5-5 antibody in differentiated FSHD myotubes. Activated Caspase-3 was detected cell signaling antibody that we're using for ICC, Asp175 (https://www.cellsignal.com/products/primary-antibodies/cleaved-caspase-3-asp175-antibody/9661).
# Immortalized FHSD myotubes were differentiated and treated with DMSO vehicle control or FTX-1821 at concentrations of 1 μM, 0.33 μM, 0.11 μM, or 0.037 μM. […] The nuclei in myotubes were quantified according to MHC staining (FIG. 8B).
# DUX4 target genes = test: RNA-seq profiling of FSHD myotubes; format: cell-based, Human
# Text: The 40 bp single-end reads from Illumina had good quality by checking with FastQC (http://www.bioinformatics.babraham.ac.uk/projects/fastqc/). Reads were mapped to hg19 using TopHat v2.1.1. The gene model for TopHat was created by merging known Gene in gtf format with kgXref table. Both known Gene and kgXref were downloaded from UCSC table browser in hg19 assembly. The read counts were obtained using feature Counts function from Subread package with strandness option as −r 2. Reads were normalized with DESeq2. […] Consequently, Combat was used for reducing this batch effect. Calculated standard RPKM expression values. Total gene signature is very small and defined at standard statistical cutoffs: 86/19,799 mRNA genes. DUX4-regulated gene signature is majority of total signature: 77/86 mRNA genes=90%. Non-DUX4 regulated genes is minority of total signature with moderate fold changes: 9/86 mRNA genes=10%; 2-2.7×log FC.
# In addition, gene expression was also determined in wild type myotubes treated with DMSO. Three replicates for each condition were analyzed by RNA-seq and genes were clustered by the direction and intensity of change.
# [2] = test system: phospho MK2 to total MK2 ratio; test: p38 system target engagement in rat trapezius muscle; format: in vivo, Sprague-Dawley rats
# Protocol: Pharmacodynamic analysis of p38 system target engagement in muscle tissue was performed by measuring the change in phosphor MAP kinase-activated protein kinase 2 (MK2) to total MK2 ratio before and after drug treatment.
# [3] = test system: DUX4 dependent target genes; test: Prediction for FSHD patient muscle from rat muscle concentrations and in vitro myotube data; set-up: species or system Human; settings: at Cmax, FSHD patient muscle biopsies
# Protocol: P38 system target engagement persisted for at least 12 hours following the single dose of FTX-1821 (FIG. 15). P38 system target engagement in trapezius muscle was maximal when plasma and muscle concentrations of FTX-1821 were greater than 20 ng/mL or ng/g and declined at timepoints when exposures decreased. The muscle concentrations of FTX-1821 achieved in the rat study are predicted to result in >70% reduction at Cmax in DUX4 dependent target genes in FSHD patient muscle biopsies based upon in vitro data in FSHD myotubes (above).
# myogenin (MYOG) mRNA = test: Myogenin (MYOG) mRNA expression by qPCR in FSHD myotubes (control gene); format: cell-based, Human
# Protocol: as §1, §2, §3
# as §4, with “For the above example, add 500 μL of 1×TE buffer to the pooled TaqMan assays for a total final volume of 1 mL. The QuantStudio7 protocol was used 48° C. 15 min, 95° C. 10 min, 10 cycles: 95° C. 15 sec, 60° C. 4 min, 4° C. infinite. Samples were then diluted to 50 μL and continue with the qPCR step. Per 10 μL reaction: Preamp dilution 2 μL, Fast Advanced Taqman Master Mix (2×) 5 μL, Taqman probe set (20×) 0.5 μL, H2O 2.5 μL. When multiplexing the volume was adjusted to 10 μL total).” left out
# as §5
# [4] = test system: DUX4 and downstream genes ZSCAN4, TRIM43, MBD3L2, LEUTX, KHDC1L; test: DUX4-regulated downstream genes by real time PCR after DUX4 ASO; format: cell-based, Human; settings: FSHD myotubes
# Protocol: as §1
# Wild type myotubes were treated with DMSO control vehicle, and mature patient-derived FSHD myotubes that express DUX4 protein were treated with DMSO vehicle control or 1 μM of a DUX4 sequence-directed antisense oligonucleotide (ASO; FTX-2) purchased from Exiqon. After treatment, the myotubes were lysed in 19.5 μL of Roche Real Time Ready Lysis Buffer, 0.25 μL of DNAse1 (Ambion, AM2222), 0.25 μL of Protector RNase Inhibitor (Roche, 3335402001), and the RNA was collected in an RNeasy Micro Kit Master Mix. Expression levels of DUX4-regulated downstream genes (ZSCAN4, TRIM43, MBD3L2, LEUTX, and KHDC1L) was determined by real time PCR (ThermoFisher Scientific, 4484262), ZSCAN4 Taqman Assay (ThermoFisher Scientific, Hs00537549_m1, FAM-MGB), MYOG Taqman Assay (ThermoFisher Scientific, Hs01072232_m1, JUN-QSY), RPLP0 Taqman Assay (ThermoFisher Scientific, Hs99999902_m1), and/or LEUTX Taqman Assay (ThermoFisher Scientific, Hs00418470_m1). Ct values were extracted from QuantStudio Realtime PCR software, and Genedata was used to calculate relative levels of expression using POLR2A as a housekeeping gene.
# [5] = rat trapezius muscle, single oral dose 0.3 mg/kg
molecule,measurement,setting,value
Cc1c(F)cc(C(=O)NC2CC2)cc1-c1ccc(C(=O)NCC(C)(C)C)cn1 [FTX-1821],MBD3L2 mRNA expression,"[1]; FSHD1 and FSHD2 primary patient myoblast lines, 1 μM",reduction of MBD3L2
same,MBD3L2 expression levels,"[1]; myotubes of four FSHD patient lines FTCE-016, -020, -197, -196, 1 μM",reduced in all of the FSHD lines
same,myotube formation or fusion,FSHD myotubes,no changes
same,Non-DUX4-regulated genes in total signature,"DUX4 target genes; 1 μM vs DMSO, RNA-seq",9/86
same,fold changes of non-DUX4-regulated genes,"DUX4 target genes; 1 μM vs DMSO, RNA-seq",2-2.7 × log FC
same,expression of differentially expressed (DUX4 pathway) genes,"DUX4 target genes; 1 μM, compared with wild type cells",normalized
same,plasma concentration at which inhibition of the p38 system in muscle was maximal,[2]; rat,greater than 20 ng/mL
same,plasma and muscle concentrations at which target engagement was maximal,[2]; rat trapezius muscle,greater than 20 ng/mL or ng/g
same,phospho MK2 to total MK2 ratio,[2]; [5],significantly decreased
same,time to decrease of phospho MK2 to total MK2 ratio,[2]; [5],≤ 1 h
same,persistence of p38 system target engagement,"[2]; rat, single oral dose 0.3 mg/kg",at least 12 hours
same,predicted reduction in DUX4 dependent target genes,[3],> 70%
COc1nccc(-c2c(-c3ccc(F)cc3)ncn2C2CCC(O)CC2)n1 (stereo not shown) [SB239063],MYOG mRNA expression,myogenin (MYOG) mRNA,no impact
"CCc1nc(-c2cccc(C)c2)c(-c2ccnc(NC(=O)c3ccccc3)c2)s1 [TAK-715, N-(4-(2-ethyl-4-(3-methylphenyl)-1,3-thiazol-5-yl]-2-pyridyl]benzamide]",IC50,[1],< 10 nM
same,MYOG mRNA expression,myogenin (MYOG) mRNA,no impact
"NC(=O)c1ccc(N(C(N)=O)c2c(F)cccc2F)nc1-c1ccc(F)cc1F [VX-702, 2-(2,4-difluorophenyl)-6-(1-(2,6-difluorophenyl)ureido)nicotinamide]",IC50,[1],< 10 nM
same,MYOG mRNA expression,myogenin (MYOG) mRNA,no impact
"FTX-2: DUX4 sequence-directed antisense oligonucleotide purchased from Exiqon, CAGCGTCGGAAGGTGG (SEQ ID NO: 1) (listed as DNA, chemistry not given here)","expression of DUX4 and target genes ZSCAN4, TRIM43, MBD3L2, LEUTX, KHDC1L",[4]; 1 μM vs DMSO,reduced amounts
same,DUX4 and downstream gene MBD3L2 expression,[4]; different dilutions,dose dependent reduction
